In patent EP4786461A1, “PYRAZOLE CARBOXYLIC ACID DERIVATIVE AND USE THEREOF IN MEDICINE” (Haisco Pharmaceutical Group Co., Ltd., priority 2023, dated 2025):
Counter-ions that a name gives are not always drawn. Like-named read-outs stand apart in the source and are kept apart here.

Key:
[1] = target: T1, soluble guanylate cyclase (sGC) (Homo sapiens, UniProt Q02108+Q02153); experiment: In vitro detection experiment for soluble guanylate cyclase (sGC) activity (TR-FRET cGMP); type: biochemical; conditions: enzymatic agonism and/or activation of sGC; 1.5 nM sGC, 5 µM GTP, 100 µM DETA NONOate
T1 construct: purchased ICE S2304F-H07SH2
T1 sequence (Q02153 1-619): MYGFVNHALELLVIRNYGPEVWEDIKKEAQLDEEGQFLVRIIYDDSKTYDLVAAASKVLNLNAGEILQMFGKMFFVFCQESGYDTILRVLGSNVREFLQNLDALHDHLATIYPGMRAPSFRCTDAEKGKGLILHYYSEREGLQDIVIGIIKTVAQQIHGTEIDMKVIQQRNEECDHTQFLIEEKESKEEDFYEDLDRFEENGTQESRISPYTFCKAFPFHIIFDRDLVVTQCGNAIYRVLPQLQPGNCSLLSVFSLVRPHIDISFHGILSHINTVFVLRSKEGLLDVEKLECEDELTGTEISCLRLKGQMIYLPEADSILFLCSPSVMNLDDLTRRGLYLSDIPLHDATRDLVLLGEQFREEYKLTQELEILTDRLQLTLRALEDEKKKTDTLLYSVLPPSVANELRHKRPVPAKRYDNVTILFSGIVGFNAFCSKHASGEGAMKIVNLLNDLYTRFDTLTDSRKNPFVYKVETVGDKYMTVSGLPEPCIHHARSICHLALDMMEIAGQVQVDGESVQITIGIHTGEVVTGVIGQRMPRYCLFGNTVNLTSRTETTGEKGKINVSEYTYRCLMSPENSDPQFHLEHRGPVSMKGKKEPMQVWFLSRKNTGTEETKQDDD
T1 sequence (Q02108 1-690): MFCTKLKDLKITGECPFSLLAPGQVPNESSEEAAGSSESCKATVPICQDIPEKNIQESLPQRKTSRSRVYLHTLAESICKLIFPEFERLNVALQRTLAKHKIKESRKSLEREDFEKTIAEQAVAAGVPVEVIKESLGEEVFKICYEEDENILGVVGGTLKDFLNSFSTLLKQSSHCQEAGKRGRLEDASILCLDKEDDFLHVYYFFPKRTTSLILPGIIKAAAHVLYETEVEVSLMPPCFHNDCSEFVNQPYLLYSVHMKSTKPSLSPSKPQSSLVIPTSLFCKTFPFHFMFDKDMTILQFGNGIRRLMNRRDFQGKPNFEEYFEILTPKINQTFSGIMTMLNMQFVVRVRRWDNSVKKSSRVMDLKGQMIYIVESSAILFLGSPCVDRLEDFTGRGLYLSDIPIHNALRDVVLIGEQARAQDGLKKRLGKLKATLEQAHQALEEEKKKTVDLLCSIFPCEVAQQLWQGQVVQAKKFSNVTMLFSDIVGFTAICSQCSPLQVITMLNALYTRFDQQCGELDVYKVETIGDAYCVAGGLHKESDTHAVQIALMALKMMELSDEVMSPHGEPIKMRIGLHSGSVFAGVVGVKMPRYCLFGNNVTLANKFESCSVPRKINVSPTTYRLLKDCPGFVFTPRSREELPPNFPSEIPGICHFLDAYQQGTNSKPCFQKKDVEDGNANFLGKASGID
Protocol: First, 100 nL of the compounds at different concentrations were transferred to a 384-well reaction plate (Greiner, Cat. No. 784075) using Echo 655 (LABCYTE, Cat # 655), with the final DMSO concentration of 1% in the reaction mixture; 2 µL of sGC (ICE, Cat. No. S2304F-H07SH2) was added to the 384-well reaction plate, and the mixture was centrifuged at 1000 rpm for 1 min; and then 1 µL of DETA NONOate was added, and the mixture was incubated at 37°C for 10 min. After the incubation was completed, 2 µL of GTP was added, and the mixture was centrifuged at 1000 rpm for 1 min and reacted at 37°C for 60 min. In the reaction system, the final concentrations of sGC, GTP, and DETA NONOate were 1.5 nM, 5 µM, and 100 µM, respectively. After the reaction was completed, 5 µL of the test mixture (PerkinElmer, Cat. No. 62GM2PEG) was added, and the mixture was incubated at room temperature for 60 min. The TR-FRET signal (Ratio: 665/620 nm) was read using a microplate reader (BMG, Cat. No. PHERAstar FSX). A nonlinear regression curve was fitted using GraphPad Prism software, and EC50 values were calculated. Compound A (Example 1 in WO 2010065275) was used as a positive reference compound. The activation rate was calculated according to Equation 2-1, where Low control represents the TR-FRET signal value of 1 µM compound A, and High control represents the TR-FRET signal value in the DMSO well. Stimulation% = (aveHighcontrol−cpdwell)/(ave High control−ave Low; control)*100% [formula] Table 2-1 Results of enzymatic agonism and/or activation of test compounds on soluble guanylate cyclase (sGC).

[2] = Mouse pharmacokinetic assay; type: in vivo, ICR mice; conditions: mice, i.g., 10 mg/kg, plasma
Protocol: Experimental objective: In this experiment, a single dose of test compounds was administered to ICR mice intravenously and intragastrically, the concentrations of the test compounds in the plasma of mice were measured, and the pharmacokinetic characteristics and bioavailability of the test compounds in mice were evaluated.
Experimental animals: male ICR mice, 20-35 g, purchased from Chengdu Dossy Experimental Animals Co., Ltd.
Experimental method: On the day of the experiment, the ICR mice were randomly grouped according to their body weight. The animals were fasted but with water available overnight before the administration, and fed 4 h after the administration.
Sampling: Blood was taken from the orbits at specified time points, and placed in an EDTAK2 centrifuge tube. The tube was centrifuged at 5000 rpm for 10 min, and the plasma was collected.
Time points for plasma collection in G1 group: 0, 5 min, 15 min, 30 min, 1 h, 2 h, 4 h, 7 h, and 24 h.
Time points for plasma collection in G2 group: 0, 5 min, 15 min, 30 min, 1 h, 2 h, 4 h, 7 h, and 24 h.
Before analysis and detection, all the samples were stored at -60°C or lower. The samples were analyzed quantitatively by LC-MS/MS. Table 3-1 PK data of test compound (i.e., drug) in mice

[3] = Rat pharmacokinetic assay; type: in vivo, SD rats; conditions: rats, i.g., 10 mg/kg, plasma
Protocol: Experimental animals: male SD rats, 180-200 g, purchased from Chengdu Dossy Experimental Animals Co., Ltd.
Experimental design: On the day of the experiment, the SD rats were randomly grouped according to their body weight. The animals were fasted but with water available overnight before the administration, and fed 4 h after the administration.
Blood was taken from the orbits at specified time points, and placed in an EDTAK2 centrifuge tube. The tube was centrifuged at 5000 rpm for 10 min, and the plasma was collected.
Blood sampling time points for the intravenous administration group: 0, 5 min, 15 min, 30 min, 1 h, 2 h, 4 h, 7 h and 24 h; blood sampling time points for the intragastric administration group: 0, 5 min, 15 min, 30 min, 1 h, 2 h, 4 h, 7 h and 24 h. Before analysis and detection, all the samples were stored at -60°C or lower. The samples were analyzed quantitatively by LC-MS/MS. Table 4-1 PK data of test compound (i.e., drug) in rats

[4] = Stability test in rat liver microsomes; type: in vitro ADME
Protocol: At 37°C, 1 µM of the test compound was incubated with rat liver microsomes (0.5 mg/mL) supplemented with an NADPH regeneration system for 5, 10, 20, 30 and 60 minutes, and then the LC-MS/MS method was used to detect the concentration of the test compound in the resulting sample. The half-life (T1/2) and intrinsic clearance (CLint(mic)) of the compound in rat liver microsome solution were obtained by calculating the remaining percentage of the compound at the corresponding time points.

[5] = rat, microsomes, rat liver microsomes 0.5 mg/mL, 1 µM compound, NADPH regeneration system, 37°C
[6] = rat, microsomes, rat liver microsomes 0.5 mg/mL, 1 µM compound, NADPH regeneration system, 37°C, read-out: CLint(mic)
[7] = rat liver microsomes 0.5 mg/mL, 1 µM compound, NADPH regeneration system, 37°C
[8] = rat liver microsomes 0.5 mg/mL, 1 µM compound, NADPH regeneration system, 37°C, 1 µM

CC(C)CN1CCN2c3cc(F)c(-c4ccc(Cl)cc4N4CCC[C@H](n5ncc(C(=O)O)c5C(F)F)C4)cc3CC[C@H]2C1 [Compound 5-2]
EC50 [1]: < 20 nM | AUC ([2]; mouse, po, read-out: AUC): > 10000 ng·h/mL

CC(C)CN1CCN2c3cc(F)c(-c4ccc(Cl)cc4N4CCC[C@@H](n5ncc(C(=O)O)c5C(F)F)C4)cc3CC[C@H]2C1 [Compound 5-1]
EC50 [1]: < 20 nM | AUC ([2]; mouse, po, read-out: AUC): > 10000 ng·h/mL | AUC ([3]; rat, po, read-out: AUC): > 10000 ng·h/mL | half-life at 1 µM [4, 5]: 2.33 h | microsomal CLint at 1 µM [4, 6]: 9.87 µL/min/mg

CC(C)CN1CCN(c2ccc(-c3c(F)cc(Cl)cc3N3CCCC(n4ncc(C(=O)O)c4C(F)F)C3)cc2)CC1 (single isomer, unassigned) [Compound 1-1]
AUC ([2]; mouse, in vivo, po, read-out: AUC): > 10000 ng·h/mL | AUC ([3]; rat, in vivo, po, read-out: AUC): > 10000 ng·h/mL | half-life at 1 µM [4, 7]: 0.727 h | microsomal CLint at 1 µM ([4]; rat, microsomes): 31.8 µL/min/mg

CC(C)CN1CCN2c3cc(F)c(-c4ccc(Cl)cc4N4CCCC(n5ncc(C(=O)O)c5C(F)F)C4)cc3CC[C@H]2C1 (stereo partly drawn) [Trifluoroacetate salt of Compound 5]
EC50 [1]: < 20 nM

CC(C)CN1CCN2c3cc(F)c(-c4ccc(Cl)cc4N4CCC[C@H](n5ncc(C(=O)O)c5C(F)F)C4)cc3CC[C@@H]2C1 [Compound 6-2]
EC50 [1]: < 20 nM | AUC ([2]; mouse, po, read-out: AUC): > 10000 ng·h/mL | AUC ([3]; rat, po, read-out: AUC): > 10000 ng·h/mL | half-life at 1 µM [4, 5]: 1.95 h | microsomal CLint at 1 µM [4, 6]: 11.8 µL/min/mg

CC(C)CN1CCN(c2ccc(-c3ccc(C(F)F)cc3N3CCC[C@H](n4ncc(C(=O)O)c4C(F)F)C3)cc2)CC1 [Compound 3-2]
EC50 [1]: < 20 nM

CC(C)CN1CCN2c3ccc(-c4ccc(Cl)cc4N4CCC[C@@H](n5ncc(C(=O)O)c5C(F)F)C4)cc3CCC2C1 (single isomer, unassigned) [Compound 9-1]
EC50 [1]: < 20 nM | AUC ([2]; mouse, po, read-out: AUC): > 10000 ng·h/mL | AUC [3]: > 10000 ng·h/mL | CLint(mic) [4, 8]: 11.0 µL/min/mg | T1/2 [4, 8]: 2.1 h

CC(C)CN1CCN2c3ccc(-c4ccc(Cl)cc4N4CCC[C@@H](n5ncc(C(=O)O)c5C(F)F)C4)cc3CCC2C1 (single isomer, unassigned) [Compound 8-1]
EC50 [1]: < 20 nM | AUC [2]: > 10000 ng·h/mL | AUC ([3]; rat, po, read-out: AUC): > 10000 ng·h/mL | half-life at 1 µM [4, 5]: 2.53 h | microsomal CLint at 1 µM [4, 6]: 9.13 µL/min/mg

CC(C)CN1CCN2c3ccc(-c4ccc(Cl)cc4N4CCCC(n5ncc(C(=O)O)c5C(F)F)C4)cc3CCC2C1 (stereo not drawn) [Compound 8]
EC50 [1]: < 20 nM

CC(C)CN1CCN(c2ccc(-c3c(F)cc(Cl)cc3N3CCCC(n4ncc(C(=O)O)c4C(F)F)C3)cc2)CC1 (racemic) [Compound 1]
EC50 [1]: < 20 nM

CC(C)CN1CC=C(c2ccc(-c3ccc(Cl)cc3N3CCCC(n4ncc(C(=O)O)c4C(F)F)C3)cc2)CC1 (stereo not drawn) [Trifluoroacetate salt of Compound 11]
EC50 [1]: < 20 nM

CC(C)CN1CCN(c2ccc(-c3ccc(C(F)F)cc3N3CCC[C@@H](n4ncc(C(=O)O)c4C(F)F)C3)cc2)CC1 [Compound 3-1]
EC50 [1]: < 20 nM | AUC ([2]; mouse, po, read-out: AUC): > 10000 ng·h/mL | AUC ([3]; rat, po, read-out: AUC): > 10000 ng·h/mL

CC(C)CN1CCC(c2ccc(-c3ccc(Cl)cc3N3CCCC(n4ncc(C(=O)O)c4C(F)F)C3)cc2)CC1 (stereo not drawn) [Trifluoroacetate salt of Compound 12]
EC50 [1]: < 20 nM

CC(C)CN1CCN(c2ccc(-c3ccc(Cl)cc3N3CCC[C@@H](n4ncc(C(=O)O)c4C(F)F)C3)cc2)CC1 [Control compound 1, reference compound]
half-life at 1 µM [4, 7]: 0.183 h | microsomal CLint at 1 µM ([4]; rat liver microsomes 0.5 mg/mL, 1 µM compound, NADPH regeneration system, 37°C, read-out: CLint(mic)): 126 µL/min/mg

CC(C)CN1CC2CCC(C1)N2c1ccc(-c2ccc(Cl)cc2N2CCCC(n3ncc(C(=O)O)c3C(F)F)C2)cc1 (stereo not drawn) [Compound 10]
EC50 [1]: < 20 nM

CC(C)CN1CCN2c3cc(F)c(-c4ccc(Cl)cc4N4CCC[C@@H](n5ncc(C(=O)O)c5C(F)F)C4)cc3CC[C@@H]2C1 [Compound 6-1]
EC50 [1]: < 20 nM | AUC ([2]; mouse, po, read-out: AUC): > 10000 ng·h/mL | AUC ([3]; rat, po, read-out: AUC): > 10000 ng·h/mL | half-life at 1 µM [4, 5]: 1.87 h | microsomal CLint at 1 µM [4, 6]: 12.4 µL/min/mg

CC(C)CN1CCN2c3ccc(-c4ccc(Cl)cc4N4CCC[C@H](n5ncc(C(=O)O)c5C(F)F)C4)cc3CCC2C1 (single isomer, unassigned) [Compound 8-2]
EC50 [1]: < 20 nM | AUC ([2]; mouse, po, read-out: AUC): > 10000 ng·h/mL | AUC ([3]; rat, po, read-out: AUC): > 10000 ng·h/mL | half-life at 1 µM [4, 5]: 1.63 h | microsomal CLint at 1 µM [4, 6]: 14.1 µL/min/mg
